Assay results taken from patent EP3868759A1, “2,3,5-SUBSTITUTED PYRROLO[2,3-B]PYRIDINES AS ERBB MODULATORS USEFUL FOR TREATING CANCER” (PearlRiver Bio GmbH, priority 2020, dated 2021).
pIC50: −log10 of the molar value.

Tests used:
[1] = target: T1, HER2 INS YVMA (Homo sapiens, UniProt P04626, INS775YVMA); assay: Lance Kinase Activity Assay, Her2 Exon 20 InsYVMA; settings: biochemical Lance assay
T1 construct: purchased DPF
Experimental: This protocol describes how the Lance Kinase Activity Assay was performed to determine IC50 values of compounds of general formula (I) against HER2 INS YVMA. The principle behind this enzymatic assay is based upon the phosphorylation of the Ulight-peptide substrate. It is detected by using a specific EU-labeled anti-phospho peptide antibody. The binding of the Eu labeled anti-phospho peptide antibody to the phosphorylated ULight labeled peptide gives rise to a FRET-signal. Binding of an inhibitor to the kinase prevents phosphorylation of the Ulight-substrate, resulting in a loss of FRET. In table 2 is summarized the relevant information for the LANCE assay. Table 2: Reagents, stock concentrations and final assay concentrations for Her2 INS YVMA.
The compounds of general formula (I) summarized in Table 3 were serial diluted from a 10 mM DMSO stock solution 1:3 over 8 steps in a total volume of 20 µl. For every sample, 8 µl of kinase-substrate mix was transferred into a suitable assay plate (e.g. Corning #3673). Compound was added via pintool transfer (10nl/well) using a Biomek FX robot (BeckmanCoulter). Reaction was started by addition of 2µl ATP working solution and mixed using variomag teleshaker (Thermo Fischer Scientific). After 1 h incubation at room temperature the reaction was stopped with 10µl detection mix containing the Eu-labeled phosphospecific antibody and 10mM EDTA. After a second incubation period of 1 h at room temperature the FRET signal was measured at 340 nm excitation, 665 nm and 615 nm emission (for the ULight-substrate and Eu-AB, respectively) with an Envision spectrophotometer (Perkin Elmer, Waltham, MA, USA) with 50 µs delay and 300 µs integration time. IC50 values were determined from the sigmoidal dose response curves with the software Quattro Workflow (Quattro GmbH, Munich, Germany).

[2] = system: A431; assay: CellTiter-Glo cell viability, A431; format: cell-based; settings: Homo sapiens, A-431, 72 h, read-out: A431 CTG IC50
Experimental: (§1) The CellTiter-Glo Luminescent Cell Viability Assay (Promega) is a homogeneous method of determining the number of viable cells in culture. It is based on quantification of ATP, indicating the presence of metabolically active cells. Cells are seeded on day 1 at cell numbers that assure assay linearity and optimal signal intensity. After incubation for 24h in humidified chambers at 37°C and 5% CO2, compounds in DMSO are added at different concentrations. Cells are further incubated for 72 h at 37°C and 5% CO2. Cells treated with the compound vehicle DMSO are used as positive controls and cells treated with 10 µM Staurosporine serve as negative controls. At day 5 the CellTiter Glo Reagent is prepared according to the instructions of the kit (Promega Inc.): Reagent is mixed 1:1 with cell culture medium. Thereon, mixture and assay plates are equilibrated at room temperature for 20 min. Equal volumes of the reagent-medium-mixture is added to the volume of culture medium present in each well. The plates are mixed at ∼200 rpm for 2 minutes on an orbital shaker. The microplates are then incubated at room temperature for 10 minutes for stabilization of the luminescent signal. Following incubation the luminescence is recorded on a Victor microplate reader (Perkin Elmer) using a 200 ms integration time. The data is then analyzed with Excel using the XLFIT Plugin (dose response Fit 205) for IC50-determination. As quality control the Z'-factor is calculated from 16 positive and negative control values. Only assay results showing a Z'-factor ≥ 0.5 are used for further analysis.

[3] = system: Her2 Exon 20 InsYVMA Ba/F3; assay: CellTiter-Glo cell viability, Her2 Exon 20 InsYVMA Ba/F3; format: cell-based; settings: Mus musculus, BaF3, 72 h, read-out: Her2 Exon 20 InsYVMA Ba/F3 CTG IC50
Experimental: as §1

[4] = target: EGFR T790M L858R (Homo sapiens, UniProt P00533, L858R/T790M); assay: Lance assay, EGFR T790M L858R; settings: biochemical Lance assay
[5] = system: Cuto-17; assay: CellTiter-Glo cell viability, Cuto-17; format: cell-based; settings: CUTO17, 72 h, read-out: Cuto-17 CTG IC50
Experimental: as §1

[6] = system: H1975; assay: CellTiter-Glo cell viability, H1975; format: cell-based; settings: Homo sapiens, NCI-H1975, 72 h, read-out: H1975 CTG IC50
Experimental: as §1

[7] = target: EGFR wt (Homo sapiens, UniProt P00533); assay: Lance assay, EGFR wt; settings: biochemical Lance assay
[8] = system: EGFR Exon 20 InsNPH Ba/F3; assay: CellTiter-Glo cell viability, EGFR Exon 20 InsNPH Ba/F3; format: cell-based; settings: Mus musculus, BaF3, 72 h, read-out: EGFR Exon 20 InsNPH Ba/F3 CTG IC50
Experimental: as §1

[9] = system: EGFR vIII Ba/F3; assay: CellTiter-Glo cell viability, EGFR vIII Ba/F3; format: cell-based; settings: Mus musculus, BaF3, 72 h, read-out: EGFR vIII Ba/F3 CTG IC50 /
Experimental: as §1

[10] = system: EGFR L858R Ba/F3; assay: CellTiter-Glo cell viability, EGFR L858R Ba/F3; format: cell-based; settings: Mus musculus, BaF3, 72 h, read-out: EGFR L858R Ba/F3 CTG IC50 /
Experimental: as §1

[11] = target: EGFR (del746-750) (Homo sapiens, UniProt P00533, DEL746-750); assay: Lance assay, EGFR (del746-750); settings: biochemical Lance assay
[12] = system: EGFR L858R T790M Ba/F3; assay: CellTiter-Glo cell viability, EGFR L858R T790M Ba/F3; format: cell-based; settings: Mus musculus, BaF3, 72 h, read-out: EGFR L858R T790M Ba/F3 CTG IC50 /
Experimental: as §1

[13] = target: EGFR L858R (Homo sapiens, UniProt P00533, L858R); assay: Lance assay, EGFR L858R; settings: biochemical Lance assay
Chain of EGFR L858R (P00533 25-1210 L858R): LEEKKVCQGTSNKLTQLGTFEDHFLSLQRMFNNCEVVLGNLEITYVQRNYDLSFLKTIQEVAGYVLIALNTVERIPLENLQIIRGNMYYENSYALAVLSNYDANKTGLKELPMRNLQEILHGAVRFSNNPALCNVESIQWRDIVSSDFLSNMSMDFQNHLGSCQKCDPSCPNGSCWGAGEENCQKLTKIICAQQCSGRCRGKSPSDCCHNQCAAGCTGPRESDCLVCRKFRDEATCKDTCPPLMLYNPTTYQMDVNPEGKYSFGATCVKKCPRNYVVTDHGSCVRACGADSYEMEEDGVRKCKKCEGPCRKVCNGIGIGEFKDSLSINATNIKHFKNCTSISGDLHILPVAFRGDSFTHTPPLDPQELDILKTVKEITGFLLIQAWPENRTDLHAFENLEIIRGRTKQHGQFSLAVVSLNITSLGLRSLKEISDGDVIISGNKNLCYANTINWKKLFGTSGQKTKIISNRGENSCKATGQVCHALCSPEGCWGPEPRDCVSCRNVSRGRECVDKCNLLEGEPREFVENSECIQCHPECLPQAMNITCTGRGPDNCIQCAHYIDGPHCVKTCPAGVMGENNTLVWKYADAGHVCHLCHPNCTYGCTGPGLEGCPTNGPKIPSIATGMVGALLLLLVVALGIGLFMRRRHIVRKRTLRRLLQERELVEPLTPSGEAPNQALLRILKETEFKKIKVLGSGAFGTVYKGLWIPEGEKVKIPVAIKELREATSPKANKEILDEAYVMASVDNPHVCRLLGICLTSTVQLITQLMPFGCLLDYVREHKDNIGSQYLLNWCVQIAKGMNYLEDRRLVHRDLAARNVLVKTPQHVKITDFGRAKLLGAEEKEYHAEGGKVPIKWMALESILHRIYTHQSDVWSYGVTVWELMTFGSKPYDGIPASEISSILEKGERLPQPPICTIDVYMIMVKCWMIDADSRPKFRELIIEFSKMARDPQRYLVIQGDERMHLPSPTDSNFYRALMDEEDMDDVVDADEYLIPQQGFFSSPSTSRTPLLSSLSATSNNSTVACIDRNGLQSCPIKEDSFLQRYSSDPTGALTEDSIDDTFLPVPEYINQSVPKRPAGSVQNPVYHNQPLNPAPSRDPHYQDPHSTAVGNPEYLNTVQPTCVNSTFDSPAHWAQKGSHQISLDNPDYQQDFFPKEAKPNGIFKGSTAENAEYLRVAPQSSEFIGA

Chain of EGFR T790M L858R (P00533 25-1210 T790M/L858R): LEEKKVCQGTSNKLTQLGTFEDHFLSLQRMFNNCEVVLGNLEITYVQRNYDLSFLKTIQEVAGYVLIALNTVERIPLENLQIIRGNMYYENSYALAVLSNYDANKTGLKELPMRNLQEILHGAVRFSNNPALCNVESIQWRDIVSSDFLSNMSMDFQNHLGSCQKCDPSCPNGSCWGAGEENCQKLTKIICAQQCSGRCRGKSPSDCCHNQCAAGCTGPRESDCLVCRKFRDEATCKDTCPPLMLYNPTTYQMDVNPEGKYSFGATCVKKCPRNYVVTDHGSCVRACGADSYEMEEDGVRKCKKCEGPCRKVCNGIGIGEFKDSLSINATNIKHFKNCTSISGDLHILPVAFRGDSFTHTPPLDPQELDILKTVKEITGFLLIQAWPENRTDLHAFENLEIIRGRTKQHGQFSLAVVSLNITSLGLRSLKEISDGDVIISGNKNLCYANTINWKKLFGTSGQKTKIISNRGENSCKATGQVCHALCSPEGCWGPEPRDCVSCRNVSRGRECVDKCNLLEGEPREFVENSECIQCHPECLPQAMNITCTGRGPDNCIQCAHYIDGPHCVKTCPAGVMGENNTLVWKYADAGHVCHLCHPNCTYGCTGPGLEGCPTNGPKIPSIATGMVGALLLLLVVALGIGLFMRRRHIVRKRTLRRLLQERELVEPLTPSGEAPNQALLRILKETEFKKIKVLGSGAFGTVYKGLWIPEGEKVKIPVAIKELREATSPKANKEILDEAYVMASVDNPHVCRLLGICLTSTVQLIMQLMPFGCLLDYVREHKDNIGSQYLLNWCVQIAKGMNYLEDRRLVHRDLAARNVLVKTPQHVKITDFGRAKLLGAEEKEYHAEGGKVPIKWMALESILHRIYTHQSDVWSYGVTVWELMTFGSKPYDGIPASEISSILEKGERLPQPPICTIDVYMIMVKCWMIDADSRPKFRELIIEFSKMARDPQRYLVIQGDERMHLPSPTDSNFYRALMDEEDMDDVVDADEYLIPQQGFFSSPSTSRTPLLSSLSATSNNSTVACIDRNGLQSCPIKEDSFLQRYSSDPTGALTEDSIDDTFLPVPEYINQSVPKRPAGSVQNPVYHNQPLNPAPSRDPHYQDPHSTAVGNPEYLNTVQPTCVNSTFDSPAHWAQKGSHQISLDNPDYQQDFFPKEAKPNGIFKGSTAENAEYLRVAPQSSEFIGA
Chain of EGFR (del746-750) (P00533 with tags, fused parts or gaps DEL746-750): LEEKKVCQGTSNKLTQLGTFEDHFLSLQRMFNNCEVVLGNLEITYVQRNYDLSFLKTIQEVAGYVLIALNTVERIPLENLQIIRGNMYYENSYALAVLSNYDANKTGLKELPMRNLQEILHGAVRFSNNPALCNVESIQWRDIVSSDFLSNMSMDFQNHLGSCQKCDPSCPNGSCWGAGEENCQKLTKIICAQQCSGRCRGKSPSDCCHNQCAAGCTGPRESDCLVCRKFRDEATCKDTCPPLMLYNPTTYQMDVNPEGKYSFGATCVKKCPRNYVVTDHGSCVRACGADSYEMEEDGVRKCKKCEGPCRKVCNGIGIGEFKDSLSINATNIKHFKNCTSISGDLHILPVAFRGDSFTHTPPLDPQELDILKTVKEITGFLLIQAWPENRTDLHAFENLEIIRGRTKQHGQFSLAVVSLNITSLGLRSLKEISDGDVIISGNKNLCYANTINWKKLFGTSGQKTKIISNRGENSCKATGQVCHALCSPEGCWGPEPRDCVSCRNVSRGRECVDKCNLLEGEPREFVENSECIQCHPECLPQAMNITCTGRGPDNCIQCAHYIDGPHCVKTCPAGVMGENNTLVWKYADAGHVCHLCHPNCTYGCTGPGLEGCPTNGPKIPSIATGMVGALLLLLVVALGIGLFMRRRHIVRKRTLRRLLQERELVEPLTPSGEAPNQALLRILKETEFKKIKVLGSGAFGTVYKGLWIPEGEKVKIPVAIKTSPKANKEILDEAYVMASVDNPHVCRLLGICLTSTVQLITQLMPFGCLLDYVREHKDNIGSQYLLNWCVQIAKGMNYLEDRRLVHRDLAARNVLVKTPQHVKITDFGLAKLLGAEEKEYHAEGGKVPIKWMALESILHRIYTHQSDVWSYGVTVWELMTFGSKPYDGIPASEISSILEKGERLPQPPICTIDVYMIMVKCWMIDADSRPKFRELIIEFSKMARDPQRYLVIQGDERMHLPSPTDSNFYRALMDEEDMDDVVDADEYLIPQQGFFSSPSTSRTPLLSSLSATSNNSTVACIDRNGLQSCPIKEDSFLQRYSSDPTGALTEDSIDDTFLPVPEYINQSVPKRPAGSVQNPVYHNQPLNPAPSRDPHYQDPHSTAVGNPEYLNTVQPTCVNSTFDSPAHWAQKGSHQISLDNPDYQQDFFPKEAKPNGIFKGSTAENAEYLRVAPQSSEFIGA
Chain of EGFR wt (P00533 25-1210): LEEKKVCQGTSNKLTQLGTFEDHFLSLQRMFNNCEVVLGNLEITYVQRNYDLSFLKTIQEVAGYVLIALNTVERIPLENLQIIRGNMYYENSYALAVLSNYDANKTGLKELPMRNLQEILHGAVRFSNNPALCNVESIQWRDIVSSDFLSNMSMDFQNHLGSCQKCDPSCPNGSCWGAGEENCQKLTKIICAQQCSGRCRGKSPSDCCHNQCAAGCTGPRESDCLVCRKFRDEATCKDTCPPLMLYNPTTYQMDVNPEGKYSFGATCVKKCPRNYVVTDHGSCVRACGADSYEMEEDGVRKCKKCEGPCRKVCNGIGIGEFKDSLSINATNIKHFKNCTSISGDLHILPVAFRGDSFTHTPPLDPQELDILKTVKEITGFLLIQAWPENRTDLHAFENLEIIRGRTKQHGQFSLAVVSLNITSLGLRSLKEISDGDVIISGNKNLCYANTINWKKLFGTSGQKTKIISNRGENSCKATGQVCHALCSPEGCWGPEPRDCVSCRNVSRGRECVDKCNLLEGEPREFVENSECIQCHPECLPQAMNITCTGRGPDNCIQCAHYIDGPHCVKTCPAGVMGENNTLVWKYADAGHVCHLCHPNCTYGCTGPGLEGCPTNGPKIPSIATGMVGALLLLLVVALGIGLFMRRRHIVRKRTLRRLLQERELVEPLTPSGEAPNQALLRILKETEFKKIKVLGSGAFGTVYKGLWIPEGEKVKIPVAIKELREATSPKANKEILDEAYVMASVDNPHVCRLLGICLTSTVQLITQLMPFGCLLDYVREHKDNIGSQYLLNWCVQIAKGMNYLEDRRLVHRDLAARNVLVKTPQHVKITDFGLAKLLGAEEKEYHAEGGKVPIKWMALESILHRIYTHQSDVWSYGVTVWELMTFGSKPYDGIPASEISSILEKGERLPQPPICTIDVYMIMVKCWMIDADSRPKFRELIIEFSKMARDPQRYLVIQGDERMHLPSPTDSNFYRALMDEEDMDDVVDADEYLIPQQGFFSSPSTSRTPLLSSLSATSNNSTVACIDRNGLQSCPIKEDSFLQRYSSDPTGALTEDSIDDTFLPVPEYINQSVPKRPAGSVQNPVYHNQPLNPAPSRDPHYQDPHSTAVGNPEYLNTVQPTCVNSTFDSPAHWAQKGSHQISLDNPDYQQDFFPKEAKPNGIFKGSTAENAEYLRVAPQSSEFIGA

Compound | pIC50 [1] | pIC50 [2] | pIC50 [3] | pIC50 [4] | pIC50 [6] | pIC50 [7] | pIC50 [8] | pIC50 [9] | pIC50 [10] | pIC50 [11] | pIC50 [12] | pIC50 [13] | pIC50 [5]
C=CC(=O)Nc1cc(-c2c(-c3cn[nH]c3)[nH]c3ncc(C(=O)OC(C)C)c(C)c23)ccc1C [Example 20, isopropyl 3-(3-acrylamido-4-methylphenyl)-4-methyl-2-(1 H-pyrazol-4-yl)-1 H-pyrrolo[2,3-b]pyridine-5-carboxylate] | 7.00 to 7.30 | 5.00 to 6.00 | 6.00 to 6.30 | ≥ 7.30 | 5.00 to 6.00 | ≥ 7.30 | 6.30 to 7.00 | 6.30 to 7.00 |  |  |  |  | 6.00 to 6.30
C=CC(=O)Nc1cc(-c2c(-c3cnn(CC4CC4)c3)[nH]c3ncc(C(=O)OC(C)C)c(C)c23)ccc1C [Example 21, isopropyl 3-(3-acrylamido-4-methylphenyl)-2-(1-(cyclopropylmethyl)-1 H-pyrazol-4-yl)-4-methyl-1 H-pyrrolo[2,3-b]pyridine-5-carboxylate] | 7.00 to 7.30 | 5.00 to 6.00 | 6.30 to 7.00 | ≥ 7.30 | 6.30 to 7.00 | ≥ 7.30 | 7.00 to 7.30 | 6.30 to 7.00 |  |  |  |  | 6.30 to 7.00
C=CC(=O)Nc1cc(-c2c(-c3cnn(CCO)c3)[nH]c3ncc(C(=O)OC(C)C)c(C)c23)ccc1C [Example 23, isopropyl 3-(3-acrylamido-4-methylphenyl)-2-(1-(2-hydroxyethyl)-1H-pyrazol-4-yl)-4-methyl-1 H-pyrrolo[2,3-b]pyridine-5-carboxylate] | 6.30 to 7.00 | 5.00 to 6.00 | 6.00 to 6.30 | 7.00 to 7.30 |  | ≥ 7.30 | 6.30 to 7.00 | 7.00 to 7.30 | ≥ 7.30 | ≥ 7.30 | 6.30 to 7.00 | ≥ 7.30 | 

Now from value to molecule, other results behind:

pIC50 [1] | pIC50 [2] | pIC50 [3] | pIC50 [4] | pIC50 [6] | pIC50 [7] | pIC50 [8] | pIC50 [9] | pIC50 [10] | pIC50 [11] | pIC50 [12] | pIC50 [13] | Compound | pIC50 [5]
6.30 to 7.00 | 5.00 to 6.00 | 6.00 to 6.30 | 7.00 to 7.30 |  | ≥ 7.30 | 6.30 to 7.00 | 7.00 to 7.30 | ≥ 7.30 | ≥ 7.30 | 7.00 to 7.30 | ≥ 7.30 | C=CC(=O)Nc1cc(-c2c(-c3cnn(CC(C)O)c3)[nH]c3ncc(C(=O)OC(C)C)c(C)c23)ccc1C (stereo not drawn) [Example 24, isopropyl 3-(3-acrylamido-4-methylphenyl)-2-(1-(2-hydroxypropyl)-1H-pyrazol-4-yl)-4-methyl-1 H-pyrrolo[2,3-b]pyridine-5-carboxylate] | 
6.30 to 7.00 | 5.00 to 6.00 | 6.30 to 7.00 | 7.00 to 7.30 |  | ≥ 7.30 | 6.30 to 7.00 | 7.00 to 7.30 | ≥ 7.30 | ≥ 7.30 | 7.00 to 7.30 | ≥ 7.30 | C=CC(=O)Nc1cc(-c2c(-c3cn(C)cn3)[nH]c3ncc(C(=O)OC(C)C)c(C)c23)ccc1C [Example 25, isopropyl 3-(3-acrylamido-4-methylphenyl)-4-methyl-2-(1-methyl-1 H-imidazol-4-yl)-1H-pyrrolo[2,3-b]pyridine-5-carboxylate] | 
